Tested on: MDR1 (P-gp)
Assay: Bidirectional permeability study on MDCK-MDR1 cell line
Type: in vitro ADME
Settings: dog; for efflux ratio at 2 h, 1 μM: MDCK-MDR1, pH 7.4, read-out: Excretion ratio = Papp (B-A)/Papp (A-B); for Papp A→B at 2 h, 1 μM / Papp B→A at 2 h, 1 μM: pH 7.4, MDCK-MDR1, 1 μM
Description: MDCK-MDR1 cells were purchased from Netherlands Cancer Institute, and cells between 10 and 20 generations were used.
1) Before cell inoculation, 50 μL of cell medium was added into each well of an upper chamber of Transwell, and […] of cell medium was added into a lower culture plate. The culture plate was placed in an incubator at 37° C. under 5% CO2 for incubation for 1 hour, and then could be used for inoculating cells.
2) The MDCK-MDR1 cells were resuspended with the medium, so that a final concentration was 1.56×10^6 cells/mL. A cell suspension was added into an upper chamber of a 96-well Transwell culture plate according to 50 μL per well. The incubator was set at 37° C. under 5% CO2, and was ensured to have a relative humidity of 95% for culturing for 4 days to 8 days. The medium was replaced 48 hours after inoculation, the culturing lasted for 4 days to 8 days, and the medium was replaced every other day.
4) Calculation of resistance value: measured resistance value (ohms)×film area (cm^2)=TEER value (ohm cm^2), and if the TEER value was less than 42 ohms cm^2, the well could not be used for a penetration experiment.
1) The MDCK-MDR1 Transwell culture plate was taken from the incubator. The cell monolayer film was moistened and washed twice with a preheated HBSS (25 mM HEPES, pH 7.4) buffer, and incubated at 37° C. for 30 minutes.
2) A stock solution of the control compound and the test compound was diluted in DMSO to obtain a 200 μM solution, and then diluted with HBSS (10 mM HEPES, pH 7.4) to obtain a 1 μM working solution. A final concentration of DMSO in the incubation system was 0.5%.
3) A transfer rate of the compound from a top end to a base end was measured. 125 μL of working solution was added into the upper chamber (top end), then 50 μL of sample solution was immediately transferred from a lower chamber (base end) to a 96-well plate filled with 200 μL of acetonitrile containing an internal standard as a 0-minute administration sample (A-B) for detection, and 235 μL of HBSS (25 mM HEPES, pH 7.4) buffer was added into the lower chamber. The internal standard contained 100 nM alprazolam, 200 nM caffeine and 100 nM tolbutamide. The 50 μL of sample solution transferred above was vortexed at a speed of 1,000 rpm for 10 minutes.
4) A transfer rate of the compound from the base end to the top end was measured. 285 μL of working solution was added into the lower chamber (base end), then 50 μL of sample solution was immediately transferred from the upper chamber (top end) to a 96-well plate filled with 200 μL of acetonitrile containing an internal standard as a 0-minute administration sample (B-A) for detection, and 75 μL of HB SS (25 mM HEPES, pH 7.4) buffer was added into the upper chamber. The internal standard contained 100 nM alprazolam, 200 nM caffeine and 100 nM tolbutamide. The 50 μL of sample solution transferred above was vortexed at a speed of 1,000 rpm for 10 minutes. The experiment from the top end to the base end and the experiment from the base end to the top end should be carried out simultaneously.
5) After adding the buffers into the lower chamber and the upper chamber respectively, the MDCK-MDR1 Transwell culture plate was incubated at 37° C. for 2 hours.
6) After finishing incubating, 50 μL of sample solutions were respectively taken from an administration side (the upper chamber: Ap→Bl flux, the lower chamber: Bl→Ap) and a receiving side (the lower chamber: Ap→Bl flux, the upper chamber Bl→Ap) and added into new 96-well plates, and 4 times volume of […] containing the internal standard was added into the well plates. The internal standard substance contained 100 nM alprazolam, 200 nM caffeine and 100 nM tolbutamide. The solution was vortexed for 10 minutes, and then centrifuged at 3,220 g for 40 minutes. 100 μL of supernatant was sucked and mixed with equal volume of ultrapure water, and then subjected to LC-MS/MS analysis. […]

efflux ratio at 2 h, 1 μM	Papp A→B at 2 h, 1 μM	Papp B→A at 2 h, 1 μM	Compound
4.67	11.1 ×10⁻⁶ cm/s	51.9 ×10⁻⁶ cm/s	C[C@H]1Nc2nc3c(cnn3cc2F)C(=O)N[C@H]2C[C@H](C2)Oc2ncc(F)cc21 [Example 3, (3^1S,3^3S,6^3E,6^4E,8R)-1^5,6^6-difluoro-8-methyl-2-oxo-4,7-diaza-6(3,5)-pyrazolo[1,5-a]pyrimidine-1(2,3)-pyridine-3(1,3)-cyclobutylcyclooctane-5-one]
19.4	3.31 ×10⁻⁶ cm/s	64.4 ×10⁻⁶ cm/s	C[C@H]1Nc2ccn3ncc(c3n2)C(=O)N[C@H]2C[C@H](C2)Oc2ncc(F)cc21 [Positive control 2, reference compound]

From US12428433B2, “Fluorine-containing heterocyclic derivatives with macrocyclic structure and use thereof” (ScinnoHub Pharmaceutical Co., Ltd, priority 2019, dated 2025)
